According to patent publication US10947252B2, “Inhibitors of KEAP1-Nrf2 protein-protein interaction” (Janssen Pharmaceutica NV, priority 2018, dated 2021):
Where a name gives a salt, the structure may show the parent alone.

Tests used:
[1] = target: Kelch domain of human KEAP1 (321-624 aa) (Homo sapiens (Human), UniProt Q14145); assay: KEAP1 KELCH ThermoFluor binding assay; details: KEAP Kelch […], 1,8-ANS, pH 7.0, average of results obtained, read-out: Tf Kd;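 further: Ligand-induced melting temperature shift of E. coli-expressed KEAP1 Kelch protein, Kd estimated from concentration-response curves of ΔTm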
Kelch domain of human KEAP1 (321-624 aa), sequence (Q14145 321-624): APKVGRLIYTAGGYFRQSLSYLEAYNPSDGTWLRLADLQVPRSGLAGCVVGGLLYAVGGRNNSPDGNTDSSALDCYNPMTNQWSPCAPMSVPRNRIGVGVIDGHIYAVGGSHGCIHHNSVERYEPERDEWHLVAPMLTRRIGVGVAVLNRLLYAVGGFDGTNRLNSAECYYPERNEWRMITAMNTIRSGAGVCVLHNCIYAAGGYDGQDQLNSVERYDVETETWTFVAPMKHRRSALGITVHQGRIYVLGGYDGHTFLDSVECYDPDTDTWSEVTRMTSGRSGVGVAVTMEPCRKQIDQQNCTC

[2] = tested on: Glo-Response ARE-luc2P HEK293 cell line; assay: ARE luciferase reporter cell-based assay; details: Homo sapiens, HEK293, 24 h, average of results obtained;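 further: luciferase signal tracks Nrf2 activation of the ARE once compounds disrupt KEAP1-Nrf2 binding, read with One-Glo reagent, DMSO serving as low control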

Kd [1] | SMILES | EC50 [2]
< 1 nM | Cc1ccc(C(CC(=O)O)c2ccn3c(C(F)(F)F)nnc3c2C)nc1CN1C[C@@H]2CCCCN2c2ncccc2S1(=O)=O (stereo in doubt) [Example 478, 3-(6-(((*S)-5,5-Dioxido-7,7a,8,9,10,11-hexahydro-6H-dipyrido[2,1-d:2′,3′-f][1,2,5]thiadiazepin-6-yl)methyl)-5-methylpyridin-2-yl)-3-(8-methyl-3-(trifluoromethyl)-[1,2,4]triazolo[4,3-a]pyridin-7-yl)propanoic Acid] | 57.6 nM
< 1 nM | Cc1cnc2c(c1)S(=O)(=O)N(Cc1nc(C(CC(=O)O)c3ccn4c(C(F)(F)F)nnc4c3C)ccc1C)C[C@@H]1CCCCN21 (stereo in doubt) [Example 487, 3-(8-Methyl-3-(trifluoromethyl)-[1,2,4]triazolo[4,3-a]pyridin-7-yl)-3-(5-methyl-6-(((*S)-3-methyl-5,5-dioxido-7,7a,8,9,10,11-hexahydro-6H-dipyrido[2,1-d:2′,3′-f][1,2,5]thiadiazepin-6-yl)methyl)pyridin-2-yl)propanoic Acid] | 18.3 nM
< 1 nM | Cc1cnc2c(c1)S(=O)(=O)N(Cc1nc(C(CC(=O)O)c3ccn4c(C(F)(F)F)nnc4c3C)ccc1C)C[C@H]1CCCCN21 (stereo in doubt) [Example 490, 3-(8-Methyl-3-(trifluoromethyl)-[1,2,4]triazolo[4,3-a]pyridin-7-yl)-3-(5-methyl-6-(((*R)-3-methyl-5,5-dioxido-7,7a,8,9,10,11-hexahydro-6H-dipyrido[2,1-d:2′,3′-f][1,2,5]thiadiazepin-6-yl)methyl)pyridin-2-yl)propanoic Acid] | 5.85 nM
< 1 nM | Cc1ccc(C(CC(=O)O)c2ccn3c(C(F)(F)F)nnc3c2C)nc1CN1C[C@@H]2CCCCN2c2ncc(F)cc2S1(=O)=O (stereo in doubt) [Example 496, 3-(6-(((*S)-3-Fluoro-5,5-dioxido-7,7a,8,9,10,11-hexahydro-6H-dipyrido[2,1-d:2′,3′-f][1,2,5]thiadiazepin-6-yl)methyl)-5-methylpyridin-2-yl)-3-(8-methyl-3-(trifluoromethyl)-[1,2,4]triazolo[4,3-a]pyridin-7-yl)propanoic Acid] | 7.65 nM
< 1 nM | Cc1cnc2c(c1)S(=O)(=O)N(Cc1cc(C(CC(=O)O)c3ccn4c(C(F)F)nnc4c3C)ccc1C)C[C@@H]1CCCCN21 (stereo in doubt) [Example 499, 3-(3-(Difluoromethyl)-8-methyl-[1,2,4]triazolo[4,3-a]pyridin-7-yl)-3-(4-methyl-3-(((*S)-3-methyl-5,5-dioxido-7,7a,8,9,10,11-hexahydro-6H-dipyrido[2,1-d:2′,3′-f][1,2,5]thiadiazepin-6-yl)methyl)phenyl)propanoic Acid] | 12.8 nM
< 1 nM | Cc1ccc(C(CC(=O)O)c2ccn3c(C(F)F)nnc3c2C)cc1CN1C[C@H]2CCCN2c2ncc(C#N)cc2S1(=O)=O (stereo in doubt) [Example 539, 3-(3-(((*R)-3-Cyano-5,5-dioxido-7a,8,9,10-tetrahydropyrido[2,3-f]pyrrolo[2,1-d][1,2,5]thiadiazepin-6(7H)-yl)methyl)-4-methylphenyl)-3-(3-(difluoromethyl)-8-methyl-[1,2,4]triazolo[4,3-a]pyridin-7-yl)propanoic Acid] | 76 nM
602 nM | Cc1ccc(C(CC(N)=O)c2ccn3c(C(F)(F)F)nnc3c2C)cc1CN1C[C@@H]2CCCCN2c2ncccc2S1(=O)=O (stereo in doubt) [Example 547, 3-(3-(((*S)-5,5-Dioxido-7,7a,8,9,10,11-hexahydro-6H-dipyrido[2,1-d:2′,3′-f][1,2,5]thiadiazepin-6-yl)methyl)-4-methylphenyl)-3-(8-methyl-3-(trifluoromethyl)-[1,2,4]triazolo[4,3-a]pyridin-7-yl)propanamide] | 9640 nM
< 1 nM | Cc1ccc([C@@H](c2ccn3c(C(F)(F)F)nnc3c2C)C(C)(C)C(=O)O)cc1CN1CC2(CCOCC2)Oc2nc(OC(C)CN3CCCCC3)c(C)cc2S1(=O)=O (stereo in doubt) [Example 600, (*S)-2,2-Dimethyl-3-(4-methyl-3-((8′-methyl-1′,1′-dioxido-7′-((1-(piperidin-1-yl)propan-2-yl)oxy)-2,3,5,6-tetrahydrospiro[pyran-4,4′-pyrido[2,3-b][1,4,5]oxathiazepin]-2′,(3′H)-yl)methyl)phenyl)-3-(8-methyl-3-(trifluoromethyl)-[1,2,4]triazolo[4,3-a]pyridine-7-yl)propanoic Acid] | 4.58 nM
0.24 nM | Cc1ccc(C(CC(=O)O)c2cc(OC3CC3)c3c(c2)nnn3C)cc1CN1C[C@H]2CCCN2c2ncccc2S1(=O)=O (stereo partly drawn) [Example 4, 3-(7-Cyclopropoxy-1-methyl-1H-benzo[d][1,2,3]triazol-5-yl)-3-(3-(((R)-5,5-dioxido-7a,8,9,10-tetrahydropyrido[2,3-f]pyrrolo[2,1-d][1,2,5]thiadiazepin-6(7H)-yl)methyl)-4-methylphenyl)propanoic acid] | 79 nM
0.081 nM | CCn1nnc2c(C)c(C(CC(=O)O)c3ccc(C)c(CN4C[C@H]5CCCN5c5ncccc5S4(=O)=O)c3)ccc21 (stereo partly drawn) [Example 20, 3-(3-(((R)-5,5-Dioxido-7a,8,9,10-tetrahydropyrido[2,3-f]pyrrolo[2,1-d][1,2,5]thiadiazepin-6(7H)-yl)methyl)-4-methylphenyl)-3-(1-ethyl-4-methyl-1H-benzo[d][1,2,3]triazol-5-yl)propanoic Acid and its Trifluoroacetic Acid Salt] | 6.3 nM
< 1 nM | Cc1ccc(C(CC(=O)O)c2ccn3c(C(F)F)nnc3c2C)cc1CN1CC2CCCCN2c2ncc(C#N)cc2S1(=O)=O (stereo not drawn) [Example 28, 3-(3-((3-Cyano-5,5-dioxido-7,7a, 8,9,10,11-hexahydro-6H-dipyrido[2,1-d:2′,3′-f][1,2,5]thiadiazepin-6-yl)methyl)-4-methylphenyl)-3-(3-(difluoromethyl)-8-methyl-[1,2,4]triazolo[4,3-a]pyridin-7-yl)propanoic Acid] | 23.5 nM
< 1 nM | Cc1ccc(C(CC(=O)O)c2ccn3c(C(F)(F)F)nnc3c2C)nc1CN1CC2CCCCN2c2ncc(C#N)cc2S1(=O)=O (stereo not drawn) [Example 33, 3-(6-((3-Cyano-5,5-dioxido-7,7a,8,9,10,11-hexahydro-6H-dipyrido[2,1-d:2′,3′-f][1,2,5]thiadiazepin-6-yl)methyl)-5-methylpyridin-2-yl)-3-(8-methyl-3-(trifluoromethyl)-[1,2,4]triazolo[4,3-a]pyridin-7-yl)propanoic Acid] | 30.6 nM
< 1 nM | Cc1ccc(C(c2ccn3c(C(F)(F)F)nnc3c2C)C(C)(C)C(=O)O)cc1CN1CC2(CCOCC2)Oc2nc(OCCCO)ccc2S1(=O)=O (stereo not drawn) [Example 49, 3-(3-((7′-(3-Hydroxypropoxy)-1′,1′-dioxido-2,3,5,6-tetrahydrospiro[pyran-4,4′-pyrido[2,3-b][1,4,5]oxathiazepin]-2′(3′H)-yl)methyl)-4-methylphenyl-2,2′-dimethyl-3-(8-methyl-3-trifluoromethyl)-[1,2,4]triazolo[4,3-a]pyridine-7-yl)propanoic Acid] | 71.9 nM
2.5 nM | Cc1ccc(C(CC(=O)O)c2ccc3c(nnn3CC3CC3)c2C(F)F)cc1CN1CC2CCCN2c2ncccc2S1(=O)=O (stereo not drawn) [Example 65] | 360 nM
0.34 nM | Cc1ccc(C(CC(=O)O)c2ccc3c(nnn3CC3CC3)c2C)cc1CN1CC2(COC2)Oc2ncccc2S1(=O)=O (stereo not drawn) [Example 67] | 23 nM
2.6 nM | Cc1ccc(C(CC(=O)O)c2ccc3c(nnn3C)c2C(F)F)cc1CN1CC2CCCN2c2ncccc2S1(=O)=O (stereo not drawn) [Example 71] | 1160 nM
< 1 nM | Cc1ccc(C(CC(=O)O)c2ccc3c(nnn3CC3CC3)c2C)cc1CN1CC2(COC2)Oc2ccccc2S1(=O)=O (stereo not drawn) [Example 74, 3-(1-(Cyclopropylmethyl)-4-methyl-1H-benzo[d][1,2,3]triazol-5-yl)-3-(3-((1′,1′-dioxidospiro[benzo[b][1,4,5]oxathiazepin-4,3′-oxetan]-2,(3H)-yl)methyl)-4-methylphenyl)propanoic Acid] | 24 nM
< 1 nM | Cc1ccc(C(CC(=O)O)c2ccc3c(nnn3CC3CC3)c2C)cc1CN1CC2(CC2)N(C)c2ncccc2S1(=O)=O (stereo not drawn) [Example 75, 3-(1-(Cyclopropylmethyl)-4-methyl-1H-benzo[d][1,2,3]triazol-5-yl)-3-(4-methyl-3-((5′-methyl-1′,1′-dioxido-5′H-spiro[cyclopropane-1,4′-pyrido[2,3-f][1,2,5]thiadiazepin]-2′(3′H)-yl)methyl)phenyl)propanoic Acid] | 14 nM
< 1 nM | Cc1c(C(CC(=O)O)c2ccc(Cl)c(CN3CC4CCCCN4c4ncccc4S3(=O)=O)c2)ccn2c(C(F)(F)F)nnc12 (stereo not drawn) [Example 83, 3-(4-Chloro-3-(((*S)-5,5-dioxido-7,7a,8,9,10,11-hexahydro-6H-dipyrido[2,1-d:2′,3′-f][1,2,5]thiadiazepin-6-yl)methyl)phenyl)-3-(8-methyl-3-(trifluoromethyl)-[1,2,4]triazolo[4,3-a]pyridine-7-yl)propanoic Acid] | 232 nM
2.4 nM | Cc1c(C(CC(=O)O)c2ccc(Cl)c(CN3CC4(COC4)Oc4ncccc4S3(=O)=O)c2)ccn2c(C(F)(F)F)nnc12 (stereo not drawn) [Example 86, 3-(4-Chloro-3-((1′,1′-dioxoidospiro[oxetane-3,4′-pyrido[2,3-b][1,4,5]oxathiazepin]-2′(3′H)-yl)methyl)phenyl)-3-(8-methyl-3-(trifluoromethyl)-[1,2,4]triazolo[4,3-a]pyridine-7-yl)propanoic Acid] | 6240 nM
0.0054 nM | Cc1cnc2c(c1)S(=O)(=O)N(Cc1cc(C(CC(=O)O)c3ccn4c(C(F)(F)F)nnc4c3C)ccc1Cl)CC1CCCCN21 (stereo not drawn) [Example 89, 3-(4-Chloro-3-(((*S)-3-methyl-5,5-dioxido-7,7a,8,9,10,11-hexahydro-6H-dipyrido[2,1-d:2′,3′-f][1,2,5]thiadiazepin-6-yl)methyl)phenyl)-3-(8-methyl-3-(trifluoromethyl)-[1,2,4]triazolo[4,3-a]pyridine-7-yl)propanoic Acid] | 6.9 nM
